For orientation: Papp means a coefficient for how fast a substance crosses the barrier. The low end stands for poor permeation, the high end for ready permeation. What is called CLint scaled is the rate of metabolic loss divided by the concentration. Read a high CLint scaled as faster metabolism. As a reminder, the pEC50 is the negative decadic logarithm of the EC50, by convention in mol/L. Read a high pEC50 as a low EC50.

Series [1] in a line: in vitro. The settings on record: PAMPA. In general terms: The PAMPA barrier holds no transporters, so it reflects passive diffusion.
Series [2] in a line: in vitro. Particulars: rat, pH 7.4.
A short description of series [3]: in vitro. The settings on record: human, pH 7.4.
A further series deals with SARS-CoV-2 Mpro (Severe acute respiratory syndrome coronavirus 2 (2019-nCoV) (SARS-CoV-2), UniProt P0DTD1). In kind it is biochemical.
The target in a further series is MERS Mpro (Middle East respiratory syndrome-related coronavirus (isolate United Kingdom/H123990006/2012) (MERS-CoV) (Betacoronavirus England 1), UniProt K9N7C7). In words: biochemical.
MERS Mpro, sequence (K9N7C7 3248-3553 limits assumed): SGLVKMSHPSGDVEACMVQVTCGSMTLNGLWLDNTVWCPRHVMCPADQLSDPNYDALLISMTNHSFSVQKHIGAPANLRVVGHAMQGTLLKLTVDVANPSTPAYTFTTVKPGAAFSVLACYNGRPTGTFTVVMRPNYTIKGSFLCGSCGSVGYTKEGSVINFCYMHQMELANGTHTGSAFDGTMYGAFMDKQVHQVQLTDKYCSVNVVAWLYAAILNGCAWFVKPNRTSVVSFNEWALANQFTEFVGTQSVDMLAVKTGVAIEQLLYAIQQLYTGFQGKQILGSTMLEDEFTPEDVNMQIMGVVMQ
A further series addresses OC43 Mpro (Human coronavirus OC43 (HCoV-OC43), UniProt P0C6X6). In kind it is biochemical.
A further series concerns the target 229E Mpro (Human coronavirus 229E (HCoV-229E), UniProt P0C6X1). In kind it is biochemical.

pEC50: −log10 of the molar value.

229E Mpro, sequence (P0C6X1 2966-3267 limits assumed): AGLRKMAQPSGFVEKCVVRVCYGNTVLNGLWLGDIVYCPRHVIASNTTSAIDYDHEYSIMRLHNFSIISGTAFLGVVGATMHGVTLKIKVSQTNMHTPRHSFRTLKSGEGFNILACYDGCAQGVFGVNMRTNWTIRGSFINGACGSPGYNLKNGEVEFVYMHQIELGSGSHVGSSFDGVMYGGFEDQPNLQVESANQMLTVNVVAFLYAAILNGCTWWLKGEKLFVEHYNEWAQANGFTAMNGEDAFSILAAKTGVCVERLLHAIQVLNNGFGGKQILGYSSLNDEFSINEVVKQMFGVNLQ
OC43 Mpro, sequence (P0C6X6 3247-3549 limits assumed): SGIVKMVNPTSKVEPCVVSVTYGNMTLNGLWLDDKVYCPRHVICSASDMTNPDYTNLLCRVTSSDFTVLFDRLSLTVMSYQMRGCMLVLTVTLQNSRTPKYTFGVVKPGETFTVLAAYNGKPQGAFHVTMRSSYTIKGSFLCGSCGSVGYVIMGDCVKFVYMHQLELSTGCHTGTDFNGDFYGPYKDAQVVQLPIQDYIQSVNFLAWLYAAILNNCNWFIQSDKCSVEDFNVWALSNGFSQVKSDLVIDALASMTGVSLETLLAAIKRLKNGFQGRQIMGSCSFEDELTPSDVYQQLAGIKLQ

In “in vitro [1]”, `N#Cc1cc(C(=O)N2CCOCC2)c(N2CC[C@H](NC(=O)c3cc(=O)[nH]c4c(F)cccc34)C2)c(C(F)(F)F)c1` [Compound 4] showed a Papp of 5.55 ×10⁻⁶ cm/s. The CLint scaled was under 41.7 mL/min/kg in the series “in vitro [2]” (microsomes) and under 25 mL/min/kg in “in vitro [3]” (microsomes).

`Cc1[nH]c(=O)c(F)c(C(=O)N[C@@H]2CCN(c3c(C(=O)N4CCOCC4)cc(C#N)cc3C(F)(F)F)C2)c1Cl` [Compound 11]: the pEC50 at SARS-CoV-2 Mpro was 9.14; at MERS Mpro, 8.79; at OC43 Mpro, 7.99; on 229E Mpro it was 8.27. In the series “in vitro [1]”, the Papp came to 0.49 ×10⁻⁶ cm/s. For the same compound, in “in vitro [2]” (microsomes), the CLint scaled was under 61.7 mL/min/kg.

Take `Cc1cc(C(=O)N[C@@H]2CCN(c3c(C(=O)N4CCOCC4)cc(C#N)cc3C(F)F)C2)c(F)c(=O)[nH]1` [Compound 12]: the pEC50 at SARS-CoV-2 Mpro was 8.99; at MERS Mpro, 8.58; on OC43 Mpro it was 7.63; on 229E Mpro it was 7.04. The Papp in the series “in vitro [1]” was determined as 0.23 ×10⁻⁶ cm/s. The results for the CLint scaled in the series “in vitro [2]” (microsomes) and in “in vitro [3]” (microsomes) were under 41.7 mL/min/kg and under 25 mL/min/kg, respectively.

`N#Cc1cc(C(=O)N2CCCCC2)c(N2CC[C@@H](NC(=O)c3cc(=O)[nH]c4c(F)cccc34)C2)c(C(F)(F)F)c1` [Compound 15] showed a pEC50 on MERS Mpro of 8.48. Besides, the apparent permeability coefficient (Papp) in the series “in vitro [1]” is 15.2 ×10⁻⁶ cm/s. Further, the CLint scaled in the series “in vitro [2]” was 220 mL/min/kg; in the series “in vitro [3]”, 76.7 mL/min/kg.

As for `C[C@@]12COC[C@@H]1CN(C(=O)c1cc(C#N)cc(C(F)(F)F)c1N1CC[C@@H](NC(=O)c3cc(=O)[nH]c4c(F)cccc34)C1)C2` [Compound 16], the pEC50 on MERS Mpro was 8.84. This compound also had a Papp in “in vitro [1]” of 7.38 ×10⁻⁶ cm/s. For the same compound, the CLint scaled in the series “in vitro [2]” was 313 mL/min/kg; in the series “in vitro [3]” it was 93.3 mL/min/kg.

In the case of `N#Cc1cc(C(=O)N2CC3CC(C2)O3)c(N2CC[C@@H](NC(=O)c3cc(=O)[nH]c4c(F)cccc34)C2)c(C(F)(F)F)c1` [Compound 17], at MERS Mpro, the pEC50 is 8.90. In addition, the Papp in “in vitro [1]” was found to be 4.6 ×10⁻⁶ cm/s. In addition, the values for the CLint scaled in “in vitro [2]” and in the series “in vitro [3]” were under 48.3 mL/min/kg and under 28.3 mL/min/kg, respectively.

In turn, `COCCN1CCN(C(=O)c2cc(C#N)cc(C(F)(F)F)c2N2CC[C@@H](NC(=O)c3cc(=O)[nH]c4c(F)cccc34)C2)CC1` [Compound 19] showed a pEC50 at MERS Mpro of 8.84. In “in vitro [1]”, this compound gave a Papp of 6.68 ×10⁻⁶ cm/s. Besides, the CLint scaled in the series “in vitro [2]” is 200 mL/min/kg; in “in vitro [3]”, under 36.7 mL/min/kg.

Regarding `N#Cc1cc(C(=O)N2CCCC2)c(N2CC[C@@H](NC(=O)c3cc(=O)[nH]c4c(F)cccc34)C2)c(C(F)(F)F)c1` [Compound 20], on MERS Mpro, the pEC50 was 8.77. For the same compound, the apparent permeability coefficient (Papp) in the series “in vitro [1]” amounted to 13.8 ×10⁻⁶ cm/s. In addition, the CLint scaled is 142 mL/min/kg in “in vitro [2]” and under 36.7 mL/min/kg in “in vitro [3]”.

The compound `N#Cc1cc(C(=O)N2CCC(F)(F)C2)c(N2CC[C@@H](NC(=O)c3cc(=O)[nH]c4c(F)cccc34)C2)c(C(F)(F)F)c1` [Compound 21] showed a pEC50 at MERS Mpro of 8.89. The compound further gave a Papp in the series “in vitro [1]” of 8.89 ×10⁻⁶ cm/s. Further, the CLint scaled in the series “in vitro [2]” was 128 mL/min/kg; in “in vitro [3]”, 55 mL/min/kg.

The compound `CCS(=O)(=O)N1CCN(C(=O)c2cc(C#N)cc(C(F)(F)F)c2N2CC[C@@H](NC(=O)c3cc(=O)[nH]c4c(F)cccc34)C2)CC1` [Compound 25] gave a pEC50 at MERS Mpro of 8.85. In “in vitro [1]”, the Papp is 2.06 ×10⁻⁶ cm/s.

As for `Cc1cc(C(=O)N[C@@H]2CCN(c3c(C(=O)NCC(C)C)cc(C#N)cc3C(F)(F)F)C2)cc(=O)[nH]1` [Compound 29], the negative-log EC50 (pEC50) at SARS-CoV-2 Mpro is 7.86; on MERS Mpro, 8.05; at OC43 Mpro, 6.42; on 229E Mpro it was 6.17. The compound also showed a Papp in the series “in vitro [1]” of 3.51 ×10⁻⁶ cm/s. Also, the results for the CLint scaled in the series “in vitro [2]” (microsomes) and in the series “in vitro [3]” (microsomes) were under 51.7 mL/min/kg and under 30 mL/min/kg, respectively.

For `O=C(N[C@H]1CCN(c2c(C(=O)N3CCOCC3)cc(Br)cc2C(F)(F)F)C1)c1cc(=O)[nH]c2c(F)cccc12` [Compound 47], in “in vitro [1]”, the Papp was 15.7 ×10⁻⁶ cm/s. Moreover, the CLint scaled was 182 mL/min/kg in “in vitro [2]” (microsomes) and 46.7 mL/min/kg in “in vitro [3]” (microsomes).
